Values quoted from earlier work, collected in patent US8679548B2, “Active bromine containing biocidal compositions and their preparation” (Albemarle Corporation, priority 1998, dated 2014).

SMILES	Vapor Pressure (25° C.) [mm]
BrBr [Bromine (Br2), Bromine]	214
ClBr [Bromine Chloride (BrCl), Bromine Chloride]	1800
